Consider five compounds from US7053107B2, “Indazole compounds and pharmaceutical compositions for inhibiting protein kinases, and methods for their use” (Agouron Pharmaceuticals, Inc., priority 2002, dated 2006).

Data set [1] addresses T1, unphosphorylated VEGF-R2Δ50 (Homo sapiens, UniProt P35968, DEL940-989/E990V).
T1 construct: VEGF-R2Δ50 contains residues 806–939 and 990–1171; made in house; host or cells: baculovirus/insect cell system
Put plainly: VEGF-R2 coupled spectrophotometric assay, unphosphorylated construct (FLVK). To be noted: % inhibition at 50 nM compound; read-out: FLVK Ki % inh @ 50 nM. The data set is classed as biochemical. From the text:
This construct determines the ability of a test compound to inhibit tyrosine kinase activity. A construct (VEGF-R2Δ50) of the cytosolic domain of human vascular endothelial growth factor receptor 2 (VEGF-R2) lacking the 50 central residues of the 68 residues of the kinase insert domain was expressed in a baculovirus/insect cell system. Of the 1356 residues of full-length VEGF-R2, VEGF-R2Δ50 contains residues 806–939 and 990–1171, and also one point mutation (E99OV) within the kinase insert domain relative to wild-type VEGF-R2. Autophosphorylation of the purified construct was performed by incubation of the enzyme at a concentration of 4 μM in the presence of 3 mM ATP and 40 mM MgCl2 in 100 mM HEPES, pH 7.5, containing 5% glycerol and 5 mM DTT, at 4° C. for 2 h. […] See Parast et al., Biochemistry, 37,16788–16801 (1998).
(§1) The production of ADP from ATP that accompanies phosphoryl transfer was coupled to oxidation of NADH using phosphoenolpyruvate (PEP) and a system having pyruvate kinase (PK) and lactic dehydrogenase (LDH). The oxidation of NADH was monitored by following the decrease of absorbance at 340 nm (e340=6.22 cm^−1 mM^−1) using a Beckman DU 650 spectrophotometer. Assay conditions for phosphorylated VEGF-R2A50 (indicated as FLVK-P in the tables below) were the following: 1 mM PEP; 250 μM NADH; 50 units of LDH/mL; 20 units of PK/mL; 5 mM DTT; 5.1 mM poly(E4Y1); 1 mM ATP; and 25 mM MgCl2 in 200 mM HEPES, pH 7.5. Assay conditions for unphosphorylated VEGF-R2Δ50 (indicated as FLVK in the tables) were the following: 1 mM PEP; 250 μM NADH; 50 units of LDH/mL; 20 units of PK/mL; 5 mM DTT; […]; 3 mM ATP; and 60 mM MgCl2 and 2 mM MnCl2 in 200 mM HEPES, pH 7.5. Assays were initiated with 5 to 40 nM of enzyme. Ki values were determined by measuring enzyme activity in the presence of varying concentrations of test compounds. The data were analyzed using Enzyme Kinetic and Kaleidagraph software.

A further data set addresses T2, LCK (Homo sapiens, UniProt P06239, C224D/P223M).
T2 construct: starting from amino acid residue 223 to the end of the protein at residue 509; made in house; host or cells: insect cells
Put plainly: Lymphocyte-Specific Protein-Tyrosine Kinase (LCK) spectrophotometric assay. The data set is classed as biochemical. The following applies: 1 μM compound; read-out: LckP* % inhibit @1 μM.

The target in another data set is T3, FGF-R1 (Homo sapiens, UniProt P11362, C488A/C584S/L457V).
T3 construct: starting from the endogenous methionine residue 456 to glutamate 766; made in house; host or cells: baculovirus vector expression system
Put plainly: Fibroblast Growth Factor (FGF-R) spectrophotometric assay. The data set is classed as biochemical. To be noted: 1 μM compound; read-out: FGF-P % inhibit @1 μM.
Description: The intracellular kinase domain of human FGF-R1 was expressed using the baculovirus vector expression system starting from the endogenous methionine residue 456 to glutamate 766, according to the residue numbering system of Mohammadi et al., Mol. Cell. Biol., 16, 977–989 (1996). In addition, the construct also has the following 3 amino acid substitutions: L457V, C488A, and C584S.
as §1
The spectrophotometric assay was carried out as described above for VEGF-R2, except for the following changes in concentration: FGF-R=50 nM, ATP=2 mM, and poly(E4Y1)=15 mM.

The test system of data set [2] is HUVEC. Put plainly: HUVEC + albumin proliferation. It counts as cell-based. To be noted: Homo sapiens, 72 h, with albumin. The procedure:
(§2) This assay determines the ability of a test compound to inhibit the growth factor-stimulated proliferation of human umbilical vein endothelial cells (“HUVEC”). HUVEC cells (passage 3–4, Clonetics, Corp.) were thawed into EGM2 culture medium (Clonetics Corp) in T75 flasks. Fresh EGM2 medium was added to the flasks 24 hours later. Four or five days later, cells were exposed to another culture medium (F12K medium supplemented with 10% fetal bovine serum (FBS), 60 μg/mL endothelial cell growth supplement (ECGS), and 0.1 mg/mL heparin). Exponentially-growing HUVEC cells were used in experiments thereafter. Ten to twelve thousand HUVEC cells were plated in 96-well dishes in 100 μl of rich, culture medium (described above). The cells were allowed to attach for 24 hours in this medium. The medium was then removed by aspiration and 105 μl of starvation media (F12K+1% FBS) was added to each well. After 24 hours, 15 μl of test agent dissolved in 1% DMSO in starvation medium or this vehicle alone was added into each treatment well; the final DMSO concentration was 0.1%. One hour later, 30 μl of VEGF (30 ng/mL) in starvation media was added to all wells except those containing untreated controls; the final VEGF concentration was 6 ng/mL. Cellular proliferation was quantified 72 hours later by MTT dye reduction, at which time cells were exposed for 4 hours MTT (Promega Corp.). Dye reduction was stopped by addition of a stop solution (Promega Corp.) and absorbance at 595λ was determined on a 96-well spectrophotometer plate reader.
(§3) IC50 values were calculated by curve-fitting the response of A^595 to various concentrations of the test agent; typically, seven concentrations separated by 0.5 log were employed, with triplicate wells at each concentration. For screening compound library plates, one or two concentrations (one well per concentration) were employed, and the % inhibition was calculated by the following formula: % inhibition=(control−test)[…](control−starvation) where

The subject of data set [3] is human umbilical vein endothelial cells (HUVEC). Put plainly: HUVEC Proliferation Assay (VEGF-stimulated). It counts as cell-based. The procedure:
as §2, §3
control=A^595 when VEGF is present without test agent
test=A^595 when VEGF is present with test agent
starvation=A^595 when VEGF and test agent are both absent.

Data set [4] is described as follows: Human Liver Microsome (HLM) Assay. It counts as in vitro ADME. The following applies: @0.5 h. The procedure: Compound metabolism in human liver microsomes was measured by LC-MS analytical assay procedures as follows. First, human liver microsomes (HLM) were thawed and diluted to 5 mg/mL with cold 100 mM potassium phosphate (KPO4) buffer. Appropriate amounts of KPO4 buffer, NADPH-regenerating solution (containing B-NADP, glucose-6-phosphate, glucose-6-phosphate dehydrogenase, and MgCl2), and HLM were preincubated in 13×100 mm glass tubes at 37 C. for 10 min. (3 tubes per test compound—triplicate). Test compound (5 µM final) was added to each tube to initiate reaction and was mixed by gentle vortexing, followed by incubation at 37° C. […] Samples were centrifuged at 4000 rpm for 20 min. to precipitate proteins and salt (Beckman Allegra 6KR, S/N ALK98DO6, #634). Supernatant was transferred to new 12×75 mm glass tubes and evaporated by Speed-Vac centrifugal vacuum evaporator. Samples were reconstituted in 200 μL 0.1% formic acid/acetonitrile (90/10) and vortexed vigorously to dissolve. The samples were then transferred to separate polypropylene microcentrifuge tubes and centrifuged at 14000×g for 10 min. (Fisher Micro 14, S/N M0017580). […]
The combined compound samples were injected into the LC-MS system, composed of a Hewlett-Packard HP 1100 diode array HPLC and a Micromass Quattro II triple quadruple mass spectrometer operating in positive electrospray SIR mode (programmed to scan specifically for the molecular ion of each test compound. Each test compound peak was integrated at each timepoint. […]
A general note: Microsomes from liver hold many membrane-bound enzymes, among them those of drug oxidation.

The target of another data set is T4, PDGFRβ (Homo sapiens, UniProt P09619).
T4 construct: expressed in transfected cells; host or cells: porcine aorta endothelial (PAE) cells
Put plainly: PAE-PDGFRβ Phosphorylation in PAE-PDGFRB Cells Assay. The following applies: PAE cells overexpressing human PDGFRβ; read-out: PAE PDGFR autophos IC50. It counts as cell-based. The procedure: This assay determines the ability of a test compound to inhibit the autophosphorylation of PDGFRβ in porcine aorta endothelial (PAE)-PDGFRβ cells. PAE cells that overexpress human PDGFRβ were used in this assay. The cells were cultured in Ham's F12 media supplemented with 10% fetal bovine serum (FBS) and 400 ug/ml G418. Twenty thousands cells were seeded in each well of a 96-well plate in 50 μL of growth media and allowed to attach for 6 hours at 37° C. Cells were then exposed to the starvation media (Ham's F12 media supplemented with 0.1% FBS) for 16 hours. After the starvation period was over, 10 μL of test agent in 5% DMSO in starvation media were added to the test wells and 10 μL of the vehicle (5% DMSO in starvation media) were added into the control wells. The final DMSO concentration in each well was 0.5%. Plates were incubated at 37° C. for 1 hour and the cells were then stimulated with 1 μg/mL PDGF-BB (R & D System) in the presence of 2 mM Na3VO4 for 8 minutes. The cells were washed once with 1 mm Na3VO4 in HBSS and lysed by adding 50 μL per well of lysis buffer. One hundred μL of dilution buffer were then added to each well and the diluted cell lysate was transferred to a 96-well goat ant-rabbit coated plate (Pierce), which was pre-coated with Rabbit anti Human PDGFRβ antibody (Santa Cruz). The plates were incubated at room temperature for 2 hours and washed seven times with 1% Tween 20 in PBS. HRP-PY20 (Santa Cruz) was diluted and added to the plate for a 30-minute incubation. Plates were then washed again and TMB peroxidase substrate (Kirkegaard & Perry) was added for a 10-minute incubation. One hundred μL of 0.09 N H2SO4 was added into each well of the 96-well plate to stop the reaction. Phosphorylation status was assessed by spectrophotometer reading at 450 nm. IC50 values were calculated by curve fitting using a four-parameter analysis.

The subject of data set [5] is HUVEC. Put plainly: bFGF Huvec. It counts as cell-based. To be noted: Homo sapiens.
Another data set in a line: Mouse PK Assay. The data set is classed as in vivo. The following applies: female, B6, plasma. As for the experimental part: The pharmacokinetics (e.g., absorption and elimination) of drugs in mice were analyzed using the following experiment. Test compounds were formulated as a solution or suspension in a 30:70 (PEG 400: acidified H2O) vehicle or as a suspension in 0.5% CMC. This was administered orally (p.o.) and intraperitoneally (i.p.) at variable doses to two distinct groups (n=4) of B6 female mice. Blood samples were collected via an orbital bleed at time points: 0 hour (pre-dose), 0.5 h, 1.0 h, 2.0 h, and 4.0 h, and 7.0 h post dose. Plasma was obtained from each sample by centrifugation at 2500 rpm for 5 min. Test compound was extracted from the plasma by an organic protein precipitation method. For each time bleed 50 μL of plasma was combined with 1.0 mL of acetonitrile, vortexed for 2 min. and then spun at 4000 rpm for 15 min. to precipitate the protein and extract out the test compound. […] Test-compound plasma concentrations (μg/mL) were determined by a comparison to standard curve (peak area vs. conc. μg/mL) using known concentrations of test compound extracted from plasma samples in the manner described above. […] The quantitated test samples were plotted for visual display using Kalidagraph software and their pharmacokinetic parameters were determined using WIN NONLIN software. […]

Read-outs that look alike come from different tables or passages of the source.

T1 sequence (P35968 with tags, fused parts or gaps DEL940-989/E990V limits assumed): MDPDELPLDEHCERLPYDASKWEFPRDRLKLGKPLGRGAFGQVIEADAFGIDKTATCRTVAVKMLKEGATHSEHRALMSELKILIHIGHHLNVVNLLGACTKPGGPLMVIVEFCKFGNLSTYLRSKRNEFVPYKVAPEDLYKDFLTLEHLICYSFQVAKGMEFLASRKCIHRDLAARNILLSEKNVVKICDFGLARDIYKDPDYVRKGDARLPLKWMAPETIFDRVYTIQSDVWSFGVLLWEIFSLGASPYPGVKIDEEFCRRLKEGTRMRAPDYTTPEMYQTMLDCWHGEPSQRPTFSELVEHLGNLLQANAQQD
T2 sequence (P06239 223-509 P223M/C224D): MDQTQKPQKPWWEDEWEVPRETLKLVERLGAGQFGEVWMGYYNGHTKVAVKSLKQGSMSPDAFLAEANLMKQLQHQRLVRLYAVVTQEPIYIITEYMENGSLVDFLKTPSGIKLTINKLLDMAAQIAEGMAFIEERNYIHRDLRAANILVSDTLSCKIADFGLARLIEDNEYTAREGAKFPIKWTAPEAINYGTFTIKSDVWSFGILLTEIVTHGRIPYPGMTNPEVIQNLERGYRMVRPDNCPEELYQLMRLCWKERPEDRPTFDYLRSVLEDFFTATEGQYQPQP
T3 sequence (P11362 456-766 L457V/C488A/C584S): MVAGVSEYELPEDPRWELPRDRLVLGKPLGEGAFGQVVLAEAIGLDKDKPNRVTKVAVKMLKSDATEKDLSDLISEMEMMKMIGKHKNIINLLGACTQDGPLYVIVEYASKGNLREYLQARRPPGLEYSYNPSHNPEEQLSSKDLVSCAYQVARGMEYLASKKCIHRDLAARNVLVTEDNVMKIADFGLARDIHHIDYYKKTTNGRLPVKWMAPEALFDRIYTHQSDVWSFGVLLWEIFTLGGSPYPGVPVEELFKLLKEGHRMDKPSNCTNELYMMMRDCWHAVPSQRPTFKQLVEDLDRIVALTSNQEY
T4 sequence (P09619 33-1106): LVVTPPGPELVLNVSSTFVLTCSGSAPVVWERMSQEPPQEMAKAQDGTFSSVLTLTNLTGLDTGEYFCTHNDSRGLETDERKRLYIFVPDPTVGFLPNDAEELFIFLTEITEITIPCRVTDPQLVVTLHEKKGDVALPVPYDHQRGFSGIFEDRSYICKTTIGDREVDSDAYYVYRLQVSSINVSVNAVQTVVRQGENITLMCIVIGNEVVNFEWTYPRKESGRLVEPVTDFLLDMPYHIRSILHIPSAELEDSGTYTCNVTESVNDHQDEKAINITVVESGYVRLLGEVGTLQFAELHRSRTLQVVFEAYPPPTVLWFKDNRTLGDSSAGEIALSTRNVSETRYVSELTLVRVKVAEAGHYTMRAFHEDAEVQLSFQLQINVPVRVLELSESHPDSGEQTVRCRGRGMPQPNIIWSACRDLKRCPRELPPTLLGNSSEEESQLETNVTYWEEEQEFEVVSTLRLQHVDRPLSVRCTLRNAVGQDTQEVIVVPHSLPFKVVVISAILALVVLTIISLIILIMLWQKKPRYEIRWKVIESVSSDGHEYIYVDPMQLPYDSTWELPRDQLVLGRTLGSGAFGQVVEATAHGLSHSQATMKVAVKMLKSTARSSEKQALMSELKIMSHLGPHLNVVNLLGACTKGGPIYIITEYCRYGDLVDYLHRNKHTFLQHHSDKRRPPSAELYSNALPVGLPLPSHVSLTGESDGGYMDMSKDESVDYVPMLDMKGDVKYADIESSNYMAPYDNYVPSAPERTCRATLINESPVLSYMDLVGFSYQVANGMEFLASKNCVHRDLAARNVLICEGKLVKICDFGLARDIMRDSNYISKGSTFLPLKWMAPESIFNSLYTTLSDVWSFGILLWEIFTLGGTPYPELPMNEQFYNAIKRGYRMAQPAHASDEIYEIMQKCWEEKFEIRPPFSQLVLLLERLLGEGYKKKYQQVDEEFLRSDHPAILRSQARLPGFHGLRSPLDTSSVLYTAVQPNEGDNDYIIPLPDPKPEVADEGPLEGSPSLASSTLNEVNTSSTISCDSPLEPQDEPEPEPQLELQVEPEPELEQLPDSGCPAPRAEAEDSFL

For orientation: IC50 means the point on the concentration scale where inhibition reaches its midpoint. For `Cn1cccc1C(=O)NNC(=O)c1ccccc1Nc1ccc2c(/C=C/c3ccccn3)n[nH]c2c1` [Example 3(f)], the inhibition at 0.05 µM in data set [1] worked out at 95%. The inhibition at 1 µM on LCK came to 41%; at FGF-R1, 60%. Moreover, the IC50 with HUVEC [2] is more than 100 nM.

Turning to `CC(C)ONC(=O)c1ccccc1Nc1ccc2c(/C=C/c3ccccn3)n[nH]c2c1` [Example 3(c), N-Isopropoxy-2-[3-((E)-2-pyridin-2-yl-vinyl)-1H-indazol-6-ylamino]-benzamide], the inhibition at 0.05 µM in [1] came out at 91%. Besides, the inhibition at 1 µM on LCK was found to be 9%; at FGF-R1, 83%. The values for the IC50 (in data set [3]; in the data set on HUVEC [2]) were 0.43 nM and 9.2 nM, respectively. In data set [4], the “% remaining (HLM)” value is given as 46@0.5 h %.

Consider `O=C(NCc1ccco1)c1ccccc1Nc1ccc2c(/C=C/c3ccccn3)n[nH]c2c1` [Example 3(i), N-Furan-2-ylmethyl-2-[3-((E)-2-pyridin-2-yl-vinyl)-1H-indazol-6-ylamino]-benzamide], for which the inhibition at 0.05 µM in data set [1] was 88%. The inhibition at 1 µM was 22% at LCK and 45% at FGF-R1. The IC50 in data set [3] turned out to be 0.2 nM; on PDGFRβ, 1.9 nM; in the data set with HUVEC [5] it was 1000 nM.

In general, AUC refers to the area under the concentration-time curve, a measure of exposure. As to `COC(=O)C(C(=O)OC)c1ccc(Cl)cc1[N+](=O)[O-]` [Example 1(a), 2-(4-Chloro-2-nitro-phenyl)-malonic acid dimethyl ester], the AUC was 690 ng·h/mL in the data set “Mouse PK Assay” (ip, intraperitoneal, read-out: Mouse pK, AUC, ip) and 330 ng·h/mL in “Mouse PK Assay” (oral, read-out: Mouse pK, AUC, po).

Take `Cc1ccnc(/C=C/c2n[nH]c3cc(Nc4ccccc4C(=O)NCc4ccncc4)ccc23)c1` [Example 38, 2-{3-[2-(4-Methyl-pyridin-2-yl)-vinyl]-1H-indazol6-ylamino}-N-pyridin-4-ylmethyl-benzamide]: in data set [1], the inhibition at 0.05 µM worked out at 75%. The IC50 with HUVEC [2] worked out at 0.68 nM; on PDGFRβ, 2 nM.
